Reference: ChEMBL document CHEMBL1201861, “Genomics of Drug Sensitity in Cancer screening data, Wellcome Trust Sanger Institute”

Columns and labels:
Experiment in all cases: cells
MDA-MB-157 = format: functional, cell-based; conditions: Homo sapiens
Description: SANGER: Inhibition of human MDA-MB-157 cell growth in a cell viability assay.

HGC-27 = format: functional, cell-based; conditions: Homo sapiens;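 also: growth inhibition of human HGC-27 cells, read out in a cell viability assay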
Description: SANGER: Inhibition of human HGC-27 cell growth in a cell viability assay.

HCC1937 = format: functional, cell-based; conditions: Homo sapiens;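 also: growth inhibition measured with a cell viability read-out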
Description: SANGER: Inhibition of human HCC1937 cell growth in a cell viability assay.

LoVo = format: functional, cell-based; conditions: Homo sapiens;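 also: growth inhibition of human LoVo cells, read out with a cell viability assay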
Description: SANGER: Inhibition of human LoVo cell growth in a cell viability assay.

Hs-578T = format: functional, cell-based; conditions: Homo sapiens
Description: SANGER: Inhibition of human Hs-578-T cell growth in a cell viability assay.

UACC-62 = format: functional, cell-based; conditions: Homo sapiens;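 also: growth inhibition of human UACC-62 cells, read out by a cell viability assay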
Description: SANGER: Inhibition of human UACC-62 cell growth in a cell viability assay.

BFTC-905 = format: functional, cell-based; conditions: Homo sapiens
Description: SANGER: Inhibition of human BFTC-905 cell growth in a cell viability assay.

FaDu = format: functional, cell-based; conditions: Homo sapiens;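 also: cell viability readout of growth inhibition in FaDu cells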
Description: SANGER: Inhibition of human FADU cell growth in a cell viability assay.

HCC1806 = format: functional, cell-based; conditions: Homo sapiens;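 also: growth inhibition of the cancer cell line, determined with a cell viability assay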
Description: SANGER: Inhibition of human HCC1806 cell growth in a cell viability assay.

HCC1599 = format: functional, cell-based; conditions: Homo sapiens;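 also: growth inhibition of HCC1599 cells, read out in a cell viability assay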
Description: SANGER: Inhibition of human HCC1599 cell growth in a cell viability assay.

NCI-H2228 = format: functional, cell-based; conditions: Homo sapiens;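 also: growth inhibition of human NCI-H2228 cells, read out by a cell viability assay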
Description: SANGER: Inhibition of human NCI-H2228 cell growth in a cell viability assay.

MONO-MAC-6 = format: functional, cell-based; conditions: Homo sapiens;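 also: cell viability assay measuring growth inhibition of human MONO-MAC-6 cells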
Description: SANGER: Inhibition of human MONO-MAC-6 cell growth in a cell viability assay.

NCI-H520 = format: functional, cell-based; conditions: Homo sapiens;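 also: growth inhibition of NCI-H520 cells, measured by a cell viability assay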
Description: SANGER: Inhibition of human NCI-H520 cell growth in a cell viability assay.

SW1783 = format: functional, cell-based; conditions: Homo sapiens;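 also: cell growth inhibition measured with a viability assay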
Description: SANGER: Inhibition of human SW1783 cell growth in a cell viability assay.

YT = format: functional, cell-based; conditions: Homo sapiens
Description: SANGER: Inhibition of human YT cell growth in a cell viability assay.

Capan-2 = format: functional, cell-based; conditions: Homo sapiens;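 also: Capan-2 cell growth inhibition, read out with a viability assay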
Description: SANGER: Inhibition of human Capan-2 cell growth in a cell viability assay.

HT-1080 = format: functional, cell-based; conditions: Homo sapiens
Description: SANGER: Inhibition of human HT-1080 cell growth in a cell viability assay.

LCLC-97TM1 = format: functional, cell-based; conditions: Homo sapiens;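 also: cell viability assay measuring growth inhibition of human LCLC-97TM1 cells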
Description: SANGER: Inhibition of human LCLC-97TM1 cell growth in a cell viability assay.

GAMG = format: functional, cell-based; conditions: Homo sapiens;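 also: cell growth inhibition measured by a viability assay in the GAMG human cell line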
Description: SANGER: Inhibition of human GAMG cell growth in a cell viability assay.

MKN-45 = format: functional, cell-based; conditions: Homo sapiens;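 also: growth inhibition of human MKN-45 cells, measured with a cell viability assay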
Description: SANGER: Inhibition of human MKN45 cell growth in a cell viability assay.

NY = format: functional, cell-based; conditions: Homo sapiens
Description: SANGER: Inhibition of human NY cell growth in a cell viability assay.

DBTRG-05MG = format: functional, cell-based; conditions: Homo sapiens;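 also: cell viability assay measuring growth inhibition of human DBTRG-05MG cells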
Description: SANGER: Inhibition of human DBTRG-05MG cell growth in a cell viability assay.

Ca9-22 = format: functional, cell-based; conditions: Homo sapiens;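 also: growth inhibition of Ca9-22 cells, read out with a cell viability assay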
Description: SANGER: Inhibition of human Ca9-22 cell growth in a cell viability assay.

GCT = format: functional, cell-based; conditions: Homo sapiens;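 also: GCT cell line proliferation inhibition, read out with a cell viability assay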
Description: SANGER: Inhibition of human GCT cell growth in a cell viability assay.

NCI-H322M = format: functional, cell-based; conditions: Homo sapiens;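 also: cell viability assay measuring inhibition of growth of human NCI-H322M cells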
Description: SANGER: Inhibition of human NCI-H322M cell growth in a cell viability assay.

KYSE-70 cell line = format: functional, cell-based; conditions: Homo sapiens;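 also: cell viability assay read-out, with IC50 expressing suppression of KYSE-70 cell growth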
Description: SANGER: Inhibition of human KYSE-70 cell growth in a cell viability assay.

NCI-H1573 = format: functional, cell-based; conditions: Homo sapiens;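 also: growth inhibition of NCI-H1573 cells, read out with a cell viability assay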
Description: SANGER: Inhibition of human NCI-H1573 cell growth in a cell viability assay.

OE19 = format: functional, cell-based; conditions: Homo sapiens;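 also: growth inhibition of OE19 cells, measured through a cell viability read-out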
Description: SANGER: Inhibition of human OE19 cell growth in a cell viability assay.

MeWo = format: functional, cell-based; conditions: Homo sapiens;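 also: growth inhibition of MeWo cells, determined by a cell viability readout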
Description: SANGER: Inhibition of human Mewo cell growth in a cell viability assay.

OE33 = format: functional, cell-based; conditions: Homo sapiens;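 also: growth inhibition of human OE33 cells, measured by a cell viability assay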
Description: SANGER: Inhibition of human OE33 cell growth in a cell viability assay.

RO82-W-1 = format: functional, cell-based; conditions: Homo sapiens;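 also: growth inhibition of human RO82-W-1 cells, measured with a cell viability assay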
Description: SANGER: Inhibition of human RO82-W-1 cell growth in a cell viability assay.

KYSE-180 = format: functional, cell-based; conditions: Homo sapiens;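 also: growth inhibition of KYSE-180 cells, read out with a cell viability assay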
Description: SANGER: Inhibition of human KYSE-180 cell growth in a cell viability assay.

NB12 = format: functional, cell-based; conditions: Homo sapiens;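 also: growth inhibition of human NB12 cells, read out by a cell viability assay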
Description: SANGER: Inhibition of human NB12 cell growth in a cell viability assay.

HCC1395 = format: functional, cell-based; conditions: Homo sapiens;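 also: growth inhibition of HCC1395 cells, read out by a cell viability assay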
Description: SANGER: Inhibition of human HCC1395 cell growth in a cell viability assay.

PANC-08-13 = format: functional, cell-based; conditions: Homo sapiens;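 also: cell growth inhibition, measured with a cell viability assay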
Description: SANGER: Inhibition of human PANC-08-13 cell growth in a cell viability assay.

Panc1005 = format: functional, cell-based; conditions: Homo sapiens;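 also: growth inhibition of human PANC-10-05 cells, measured by a cell viability assay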
Description: SANGER: Inhibition of human PANC-10-05 cell growth in a cell viability assay.

SCC-25 = format: functional, cell-based; conditions: Homo sapiens;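 also: growth inhibition of SCC-25 cells, measured with a cell viability assay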
Description: SANGER: Inhibition of human SCC-25 cell growth in a cell viability assay.

LB647-SCLC = format: functional, cell-based; conditions: Homo sapiens;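 also: cell growth inhibition, read out by a viability assay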
Description: SANGER: Inhibition of human LB647-SCLC cell growth in a cell viability assay.

MC-CAR = format: functional, cell-based; conditions: Homo sapiens;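 also: growth inhibition of the human MC-CAR cell line, read out by a cell viability assay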
Description: SANGER: Inhibition of human MC-CAR cell growth in a cell viability assay.

ABC-1 = format: functional, cell-based; conditions: Homo sapiens;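 also: growth inhibition of human ABC-1 cells, read out by a cell viability assay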
Description: SANGER: Inhibition of human ABC-1 cell growth in a cell viability assay.

IST-SL2 = format: functional, cell-based; conditions: Homo sapiens;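 also: growth inhibition of human IST-SL2 cells, read out by a cell viability assay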
Description: SANGER: Inhibition of human IST-SL2 cell growth in a cell viability assay.

SK-MES-1 = format: functional, cell-based; conditions: Homo sapiens;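 also: growth inhibition of human SK-MES-1 cells, read out with a cell viability assay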
Description: SANGER: Inhibition of human SK-MES-1 cell growth in a cell viability assay.

LU-165 = format: functional, cell-based; conditions: Homo sapiens
Description: SANGER: Inhibition of human LU-165 cell growth in a cell viability assay.

UMUC3 = format: functional, cell-based; conditions: Homo sapiens;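 also: growth inhibition of human UM-UC-3 cells, read out with a cell viability assay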
Description: SANGER: Inhibition of human UM-UC-3 cell growth in a cell viability assay.

NCI-H2171 = format: functional, cell-based; conditions: Homo sapiens;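 also: growth inhibition of human NCI-H2171 cells, read out by a cell viability assay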
Description: SANGER: Inhibition of human NCI-H2171 cell growth in a cell viability assay.

COR-L105 = format: functional, cell-based; conditions: Homo sapiens;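 also: cell growth inhibition determined with a viability assay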
Description: SANGER: Inhibition of human COR-L105 cell growth in a cell viability assay.

ChaGo-K-1 = format: functional, cell-based; conditions: Homo sapiens;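 also: growth inhibition of ChaGo-K-1 cells, read out with a cell viability assay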
Description: SANGER: Inhibition of human ChaGo-K-1 cell growth in a cell viability assay.

A204 = format: functional, cell-based; conditions: Homo sapiens;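 also: growth inhibition of human A204 cells, read out with a cell viability assay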
Description: SANGER: Inhibition of human A204 cell growth in a cell viability assay.

FTC-133 = format: functional, cell-based; conditions: Homo sapiens
MHH-ES-1 = format: functional, cell-based; conditions: Homo sapiens;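 also: cell growth inhibition measured by a cell viability assay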
Description: SANGER: Inhibition of human MHH-ES-1 cell growth in a cell viability assay.

HT1197 = format: functional, cell-based, HT-1197; conditions: Homo sapiens
Description: SANGER: Inhibition of human HT-1197 cell growth in a cell viability assay.

CWR22R = format: functional, cell-based; conditions: Homo sapiens, 22Rv1;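 also: growth inhibition of 22Rv1 cells, read out with a cell viability assay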
Description: SANGER: Inhibition of human 22RV1 cell growth in a cell viability assay.

T-24 = format: functional, cell-based; conditions: Homo sapiens;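 also: growth inhibition of T-24 cells, read out with a cell viability assay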
Description: SANGER: Inhibition of human T-24 cell growth in a cell viability assay.

CAL-148 = format: functional, cell-based; conditions: Homo sapiens
Description: SANGER: Inhibition of human CAL-148 cell growth in a cell viability assay.

LCLC-103H cell line = format: functional, cell-based; conditions: Homo sapiens
Description: SANGER: Inhibition of human LCLC-103H cell growth in a cell viability assay.

MKN-7 = format: functional, cell-based; conditions: Homo sapiens;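 also: growth inhibition of MKN-7 cells, read out with a cell viability assay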
Description: SANGER: Inhibition of human MKN7 cell growth in a cell viability assay.

COLO-741 = format: functional, cell-based; conditions: Homo sapiens
Description: SANGER: Inhibition of human COLO-741 cell growth in a cell viability assay.

CAL-27 = format: functional, cell-based; conditions: Homo sapiens;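 also: Viability-based readout, IC50 reflecting inhibition of CAL-27 cell growth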
Description: SANGER: Inhibition of human CAL-27 cell growth in a cell viability assay.

UMC-11 = format: functional, cell-based; conditions: Homo sapiens;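 also: growth inhibition of UMC-11 cells, read out with a cell viability assay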
Description: SANGER: Inhibition of human UMC-11 cell growth in a cell viability assay.

NCI-H1563 = format: functional, cell-based; conditions: Homo sapiens;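 also: growth inhibition of human NCI-H1563 cells, read out with a cell viability assay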
Description: SANGER: Inhibition of human NCI-H1563 cell growth in a cell viability assay.

NCI-H345 = format: functional, cell-based; conditions: Homo sapiens;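 also: growth inhibition of NCI-H345 cells measured with a cell viability assay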
Description: SANGER: Inhibition of human NCI-H345 cell growth in a cell viability assay.

BPH-1 = format: functional, cell-based; conditions: Homo sapiens;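 also: cell viability assay measuring growth inhibition of human BPH-1 cells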
Description: SANGER: Inhibition of human BPH-1 cell growth in a cell viability assay.

Measured: IC50

N#C/C(=C1/Nc2ccccc2S1)c1ccnc(NCCc2cccnc2)n1
6.17 µM: SW1783
3.63 µM: PANC-08-13
5.31 µM: SCC-25
3.6 µM: GCT
1530 nM: HCC1806
4.59 µM: ChaGo-K-1
7.34 µM: A204
4.48 µM: NCI-H2228
6.67 µM: Capan-2
3.25 µM: HCC1937
2760 nM: NY
7.07 µM: MDA-MB-157
2700 nM: LoVo
1770 nM: COR-L105
2920 nM: OE19
4.06 µM: KYSE-70 cell line
6.27 µM: HGC-27
> 8 µM: Hs-578T | UACC-62 | FaDu | HCC1599 | MONO-MAC-6 | NCI-H520 | YT | HT-1080 | GAMG | MKN-45 | DBTRG-05MG | Ca9-22 | NCI-H322M | NCI-H1573 | MeWo | OE33 | RO82-W-1 | KYSE-180 | NB12 | HCC1395 | Panc1005 | LB647-SCLC | MC-CAR | ABC-1 | IST-SL2 | LU-165 | UMUC3 | NCI-H2171 | FTC-133 | MHH-ES-1 | HT1197 | CWR22R | T-24 | CAL-148 | LCLC-103H cell line | MKN-7 | COLO-741 | CAL-27 | UMC-11 | NCI-H1563 | NCI-H345 | BPH-1
2120 nM: LCLC-97TM1
3.37 µM: BFTC-905
3.44 µM: SK-MES-1

C/C(O)=C(\C#N)C(=O)Nc1cc(Br)ccc1Br
> 16000 nM: LoVo | HCC1806 | LCLC-97TM1 | NY | OE19 | COR-L105
> 16 µM: MDA-MB-157 | HGC-27 | HCC1937 | Hs-578T | UACC-62 | BFTC-905 | FaDu | HCC1599 | NCI-H2228 | MONO-MAC-6 | NCI-H520 | SW1783 | YT | Capan-2 | HT-1080 | GAMG | MKN-45 | DBTRG-05MG | Ca9-22 | GCT | NCI-H322M | KYSE-70 cell line | NCI-H1573 | MeWo | OE33 | RO82-W-1 | KYSE-180 | NB12 | HCC1395 | PANC-08-13 | Panc1005 | SCC-25 | LB647-SCLC | MC-CAR | ABC-1 | IST-SL2 | SK-MES-1 | LU-165 | UMUC3 | NCI-H2171 | ChaGo-K-1 | A204 | FTC-133 | MHH-ES-1 | HT1197 | CWR22R | T-24 | CAL-148 | LCLC-103H cell line | MKN-7 | COLO-741 | CAL-27 | UMC-11 | NCI-H1563 | NCI-H345 | BPH-1
